From US20240317780A1, “RADIOPHARMACEUTICAL SOMATOSTATIN RECEPTOR LIGANDS AND PRECURSORS THEREOF” (Technische Universität München, priority 2021, published 2024)
Where two headings read alike, the source gives them in different places.

Assays:
SST2 = target: T1, SST2 (Homo sapiens, UniProt P30874); assay: Determination of IC50: competitive binding against [125I]TOC on SST2-transfected CHO cells; conditions: [125I]TOC reference radioligand, 60 min room temperature
T1 construct: expressed in transfected cells; host or cells: CHO (Chinese hamster ovary) cells
T1 sequence (P30874 whole entry, species assumed): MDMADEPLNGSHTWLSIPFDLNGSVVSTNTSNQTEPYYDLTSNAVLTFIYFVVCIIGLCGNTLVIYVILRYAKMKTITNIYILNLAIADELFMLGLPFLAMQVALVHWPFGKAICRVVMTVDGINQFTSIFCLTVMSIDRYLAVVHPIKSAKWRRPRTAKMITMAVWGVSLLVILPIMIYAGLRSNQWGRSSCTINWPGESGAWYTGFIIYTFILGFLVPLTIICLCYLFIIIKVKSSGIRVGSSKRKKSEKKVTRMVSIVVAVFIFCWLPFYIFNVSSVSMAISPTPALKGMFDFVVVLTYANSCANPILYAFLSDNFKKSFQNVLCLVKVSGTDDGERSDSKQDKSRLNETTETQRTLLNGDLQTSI

[1] = Biodistribution of 18F-labeled SST2 ligands in AR42J tumor-bearing mice; type: in vivo; conditions: female, CD1 nu/nu, mouse, iv, total radioactivity, 1 h post injection
Protocol: All animal experiments were conducted in accordance with general animal welfare regulations in Germany and the institutional guidelines for the care and use of animals. To establish tumor xenografts, AR42J cells (5×10^6 cells/100 μL) were suspended in Dulbecco modified Eagle medium/Nutrition Mixture F-12 with Glutamax-1 (1:1) and inoculated subcutaneously onto the right shoulder of 8 weeks old, female CD1 nu/nu mice (Charles River, Sulzfeld, Germany). Mice were used for experiments when tumors had grown to a diameter of 5-9 mm (7-15 days after inoculation).
Approximately 0.5-2.0 MBq (0.05-0.25 nmol) of the ^18F-labeled SST2-ligands were injected into the tail vein of AR42J tumor-bearing female CD1 nu/nu mice and sacrificed after 1 h post injection (n=3-5). Selected organs were removed, weighted and measured in a γ-counter.
The Tables 4, 5, and 6 summarize the results of the in vivo mouse experiments. For all biodistribution studies, female CD1 nu/nu mice with AR42J tumor xenografts, were used and sacrificed 1 h post injection.

[2] = AR42J tumor, AR42J tumor, tail vein, read-out: Tumor % ID/g ± SD
[3] = adrenal glands, tail vein, read-out: Adrenal glands % ID/g ± SD
[4] = blood, tail vein, read-out: Blood % ID/g ± SD
[5] = bone, tail vein, read-out: Bone % ID/g ± SD
[6] = heart, tail vein, read-out: Heart % ID/g ± SD
[7] = intestine, tail vein, read-out: Intestine % ID/g ± SD
[8] = kidneys, tail vein, read-out: Kidneys % ID/g ± SD
[9] = liver, tail vein, read-out: Liver % ID/g ± SD
[10] = lung, tail vein, read-out: Lung % ID/g ± SD
[11] = muscle, tail vein, read-out: Muscle % ID/g ± SD
[12] = pancreas, tail vein, read-out: Pancreas % ID/g ± SD
[13] = spleen, tail vein, read-out: Spleen % ID/g ± SD
[14] = stomach, tail vein, read-out: Stomach % ID/g ± SD

Structure (SMILES) | IC50 (SST2) [nM] | tissue uptake at 1 h [1, 2] [%ID/g] | tissue uptake at 1 h [1, 3] [%ID/g] | tissue uptake at 1 h [1, 4] [%ID/g] | tissue uptake at 1 h [1, 5] [%ID/g] | tissue uptake at 1 h [1, 6] [%ID/g] | tissue uptake at 1 h [1, 7] [%ID/g] | tissue uptake at 1 h [1, 8] [%ID/g] | tissue uptake at 1 h [1, 9] [%ID/g] | tissue uptake at 1 h [1, 10] [%ID/g] | tissue uptake at 1 h [1, 11] [%ID/g] | tissue uptake at 1 h [1, 12] [%ID/g] | tissue uptake at 1 h [1, 13] [%ID/g] | tissue uptake at 1 h [1, 14] [%ID/g] | also measured
C[C@@H](O)[C@H](NC(=O)C1CSSCC(NC(=O)C(Cc2ccccc2)NC(=O)CNC(=O)CNC(=O)[C@@H](CC(=O)O)NC(=O)C(CC(=O)O)NC(=O)[C@@H](CNC(=O)CN2CCN(CC(=O)O)CCN(CC(=O)O)CCN(CC(=O)O)CC2)NC(=O)C(CN)NC(=O)c2ccc([Si](F)(C(C)(C)C)C(C)(C)C)cc2)C(=O)N[C@@H](Cc2ccc(O)cc2)C(=O)NC(Cc2c[nH]c3ccccc23)C(=O)N[C@@H](CCCCN)C(=O)N[C@@H]([C@@H](C)O)C(=O)N1)C(=O)O (stereo partly drawn) (natGa complex, metal not drawn) [[Ga]19] | 11.2 ± 1.04 | 36.3 ± 4.54 | 2.56 ± 0.21 | 2.24 ± 0.3 | 1.96 ± 0.38 | 0.88 ± 0.11 | 1.39 ± 0.24 | 131 ± 26.7 | 2.47 ± 0.14 | 4.84 ± 0.98 | 0.27 ± 0.04 | 12.5 ± 1.87 | 0.93 ± 0.15 | 7.99 ± 2.08 | –
C[C@@H](O)[C@H](NC(=O)C1CSSCC(NC(=O)C(Cc2ccccc2)NC(=O)CNC(=O)CNC(=O)CNC(=O)C(CC(=O)O)NC(=O)[C@@H](CC(=O)O)NC(=O)C(CNC(=O)CN2CCN(CC(=O)O)CCN(CC(=O)O)CCN(CC(=O)O)CC2)NC(=O)C[N+](C)(C)Cc2ccc([Si](F)(C(C)(C)C)C(C)(C)C)cc2)C(=O)N[C@@H](Cc2ccc(O)cc2)C(=O)NC(Cc2c[nH]c3ccccc23)C(=O)N[C@@H](CCCCN)C(=O)N[C@@H]([C@@H](C)O)C(=O)N1)C(=O)O (stereo partly drawn) (natGa complex, metal not drawn) [[Ga]50] | 3.01 ± 0.03 | 31.8 ± 2.49 | 2.39 ± 0.53 | 0.5 ± 0.21 | 1.23 ± 0.41 | 0.27 ± 0.03 | 1.84 ± 0.45 | 12.3 ± 3.4 | 1.22 ± 0.18 | 3.73 ± 0.57 | 0.1 ± 0.03 | 17.3 ± 2.87 | 0.55 ± 0.06 | 9.54 ± 1.83 | –
C[C@@H](O)[C@H](NC(=O)C1CSSCC(NC(=O)C(Cc2ccccc2)NC(=O)CNC(=O)CNC(=O)CNC(=O)C(CC(=O)O)NC(=O)[C@@H](CC(=O)O)NC(=O)C(CCCNC(N)=O)NC(=O)[C@@H](CNC(=O)C[N+](C)(C)Cc2ccc([Si](F)(C(C)(C)C)C(C)(C)C)cc2)NC(=O)CN2CCN(CC(=O)O)CCN(CC(=O)O)CCN(CC(=O)O)CC2)C(=O)N[C@@H](Cc2ccc(O)cc2)C(=O)NC(Cc2c[nH]c3ccccc23)C(=O)N[C@@H](CCCCN)C(=O)N[C@@H]([C@@H](C)O)C(=O)N1)C(=O)O (stereo partly drawn) (natGa complex, metal not drawn) [[Ga]46] | 4.79 ± 0.84 | 23.4 ± 1.07 | 1.71 ± 0.38 | 0.57 ± 0.24 | 1.21 ± 0.24 | 0.3 ± 0.04 | 1.43 ± 0.35 | 12.6 ± 1.58 | 0.83 ± 0.14 | 3.22 ± 0.53 | 0.1 ± 0.02 | 11.1 ± 2.61 | 0.57 ± 0.14 | 6.51 ± 1.64 | –
C[C@@H](O)[C@H](NC(=O)C1CSSCC(NC(=O)C(Cc2ccccc2)NC(=O)CNC(=O)CNC(=O)[C@@H](CC(=O)O)NC(=O)C(CC(=O)O)NC(=O)[C@@H](CNC(=O)CN2CCN(CC(=O)O)CCN(CC(=O)O)CCN(CC(=O)O)CC2)NC(=O)C[N+](C)(C)Cc2ccc([Si](F)(C(C)(C)C)C(C)(C)C)cc2)C(=O)N[C@@H](Cc2ccc(O)cc2)C(=O)NC(Cc2c[nH]c3ccccc23)C(=O)N[C@@H](CCCCN)C(=O)N[C@@H]([C@@H](C)O)C(=O)N1)C(=O)O (stereo partly drawn) (natGa complex, metal not drawn) [[Ga]24] | 9.48 ± 1.96 | 23.9 ± 4.1 | 1.52 ± 0.46 | 0.66 ± 0.32 | 1.32 ± 0.19 | 0.34 ± 0.09 | 1.41 ± 0.19 | 13.6 ± 3.58 | 1.05 ± 0.22 | 2.33 ± 0.1 | 0.09 ± 0.04 | 9.28 ± 0.57 | 0.45 ± 0.05 | 4.95 ± 0.35 | tissue uptake at 1 h ([1]; AR42J tumor, AR42J tumor, Blocking study, read-out: Tumor % ID/g ± SD): 6.1 ± 0.02 %ID/g; tissue uptake at 1 h ([1]; adrenal glands, Blocking study, read-out: Adrenal glands % ID/g ± SD): 0.54 ± 0.05 %ID/g; tissue uptake at 1 h ([1]; blood, Blocking study, read-out: Blood % ID/g ± SD): 1.24 ± 0.61 %ID/g; tissue uptake at 1 h ([1]; bone, Blocking study, read-out: Bone % ID/g ± SD): 0.77 ± 0.07 %ID/g; tissue uptake at 1 h ([1]; heart, Blocking study, read-out: Heart % ID/g ± SD): 0.53 %ID/g; tissue uptake at 1 h ([1]; intestine, Blocking study, read-out: Intestine % ID/g ± SD): 0.71 ± 0.04 %ID/g; tissue uptake at 1 h ([1]; kidneys, Blocking study, read-out: Kidneys % ID/g ± SD): 18.2 ± 2.03 %ID/g; tissue uptake at 1 h ([1]; liver, Blocking study, read-out: Liver % ID/g ± SD): 1.82 ± 0.22 %ID/g; tissue uptake at 1 h ([1]; lung, Blocking study, read-out: Lung % ID/g ± SD): 1.36 ± 0.13 %ID/g; tissue uptake at 1 h ([1]; muscle, Blocking study, read-out: Muscle % ID/g ± SD): 0.21 ± 0.01 %ID/g; tissue uptake at 1 h ([1]; pancreas, Blocking study, read-out: Pancreas % ID/g ± SD): 1.07 ± 0.02 %ID/g; tissue uptake at 1 h ([1]; spleen, Blocking study, read-out: Spleen % ID/g ± SD): 0.33 %ID/g; tissue uptake at 1 h ([1]; stomach, Blocking study, read-out: Stomach % ID/g ± SD): 1.01 ± 0.06 %ID/g
C[C@@H](O)[C@H](NC(=O)C1CSSCC(NC(=O)C(Cc2ccccc2)NC(=O)CNC(=O)CNC(=O)CNC(=O)C(CC(=O)O)NC(=O)[C@@H](CC(=O)O)NC(=O)C(CCCCN)NC(=O)[C@@H](CNC(=O)C[N+](C)(C)Cc2ccc([Si](F)(C(C)(C)C)C(C)(C)C)cc2)NC(=O)CN2CCN(CC(=O)O)CCN(CC(=O)O)CCN(CC(=O)O)CC2)C(=O)N[C@@H](Cc2ccc(O)cc2)C(=O)NC(Cc2c[nH]c3ccccc23)C(=O)N[C@@H](CCCCN)C(=O)N[C@@H]([C@@H](C)O)C(=O)N1)C(=O)O (stereo partly drawn) (natLu complex, metal not drawn) [[Lu]45] | 3.37 ± 0.35 | – | – | – | – | – | – | – | – | – | – | – | – | – | –
C[C@@H](O)[C@H](NC(=O)C1CSSCC(NC(=O)C(Cc2ccccc2)NC(=O)CNC(=O)CNC(=O)CNC(=O)C(CC(=O)O)NC(=O)[C@@H](CC(=O)O)NC(=O)C(CCCCN)NC(=O)[C@@H](CNC(=O)C[N+](C)(C)Cc2ccc([Si](F)(C(C)(C)C)C(C)(C)C)cc2)NC(=O)CN2CCN(CC(=O)O)CCN(CC(=O)O)CCN(CC(=O)O)CC2)C(=O)N[C@@H](Cc2ccc(O)cc2)C(=O)NC(Cc2c[nH]c3ccccc23)C(=O)N[C@@H](CCCCN)C(=O)N[C@@H]([C@@H](C)O)C(=O)N1)C(=O)O (stereo partly drawn) (natGa complex, metal not drawn) [[Ga]45] | 4.3 ± 0.06 | 31.6 ± 4.96 | 1.54 ± 0.28 | 0.53 ± 0.23 | 1.81 ± 0.07 | 0.28 ± 0.04 | 1.27 ± 0.13 | 72.7 ± 7.68 | 1.28 ± 0.11 | 3.34 ± 0.49 | 0.11 ± 0.02 | 11.8 ± 1.36 | 0.56 ± 0.1 | 7.5 ± 0.13 | –
